Values after ≈ are worked out from the molar mass of the structure shown.
Legend:
[1] = test system: Acinetobacter calcoaceticus; assay: In vitro antibacterial activity against Acinetobacter calcoaceticus (GC 756) without preincubation in mouse serum; type: functional
Enterococcus faecium [2] = assay: In vitro for antibacterial activity against E. faecium(GC 1182) without pre-incubation in mouse serum; type: functional
Pseudomonas aeruginosa [3] = assay: In vitro antibacterial activity against Pseudomonas aeruginosa (ATCC 27853) without pre-incubation in mouse serum; type: functional
Mus musculus [4] = assay: Antibacterial activity against Escherichia coli (311) infection in mice after single subcutaneous dose, activity expressed as ED50; type: functional; details: sc
Staphylococcus aureus [5] = assay: In vitro antibacterial activity against S aureus(ATCC 29213) following preincubation in mouse serum; type: functional
Staphylococcus aureus [6] = assay: In vitro antibacterial activity against S. aureus(GC 2220 MRSA) following pre-incubation in mouse serum; type: functional
[7] = test system: Acinetobacter calcoaceticus; assay: In vitro antibacterial activity against Acinetobacter calcoaceticus (GC 756) following preincubation in mouse serum; type: functional
Staphylococcus aureus [8] = assay: In vitro antibacterial activity against S. aureus(GC 2220 MRSA) without pre-incubation in mouse serum; type: functional
[9] = test system: Stenotrophomonas maltophilia; assay: In vitro antibacterial activity against X. maltophilia(GC 562) without pre-incubation in mouse serum; type: functional
Enterobacter cloacae [10] = assay: In vitro antibacterial activity against E. cloacae(GC 2209) without pre-incubation in mouse serum; type: functional
[11] = test system: Stenotrophomonas maltophilia; assay: In vitro antibacterial activity against X. maltophilia(GC 562) following pre-incubation in mouse serum; type: functional
Escherichia coli [12] = assay: In vitro antibacterial activity expressed as MIC against Escherichia coli (ATCC 25922) without pre-incubation in mouse serum; type: functional
Escherichia coli [13] = assay: In vitro antibacterial activity expressed as MIC against Escherichia coli (ATCC 25922) following pre-incubation in mouse serum; type: functional
Citrobacter freundii [14] = assay: In vitro antibacterial activity against C. freundii(GC 2211) without preincubation in mouse serum; type: functional
Morganella morganii [15] = assay: In vitro antibacterial activity against M. morganii(GC 2213) without pre-incubation in mouse serum; type: functional
Enterococcus faecalis [16] = assay: In vitro antibacterial activity against E. faecalis(GC 842) without pre-incubation in mouse serum; type: functional
Mus musculus [17] = assay: Antibacterial activity against Escherichia coli (311) infection in mice after single oral dose, activity expressed as ED50; type: functional
Staphylococcus aureus [18] = assay: In vitro antibacterial activity against S. aureus(ATCC 29213) without pre-incubation in mouse serum; type: functional
Enterococcus faecium [19] = assay: In vitro for antibacterial activity against E. faecium(GC 1182) following pre-incubation in mouse serum; type: functional
Morganella morganii [20] = assay: In vitro antibacterial activity against M. morganii(GC 2213) following pre-incubation in mouse serum; type: functional
Escherichia coli [21] = assay: In vitro antibacterial activity expressed as MIC against E. coli(GC 1792) without pre-incubation in mouse serum; type: functional
Escherichia coli [22] = assay: In vitro antibacterial activity expressed as MIC against E. coli(GC 2205) without pre-incubation in mouse serum; type: functional
Enterobacter cloacae [23] = assay: In vitro antibacterial activity against E. cloacae(GC 2209) following preincubation in mouse serum; type: functional
Citrobacter freundii [24] = assay: In vitro antibacterial activity against C. freundii(GC 2211) following pre-incubation in mouse serum; type: functional
Pseudomonas aeruginosa [25] = assay: In vitro antibacterial activity against P. aeruginosa(GC 1544 oprd) following pre-incubation in mouse serum; type: functional
Enterococcus faecalis [26] = assay: In vitro antibacterial activity against E. faecalis(GC 842) following pre-incubation in mouse serum; type: functional
Escherichia coli [27] = assay: In vitro antibacterial activity expressed as MIC against E. coli(GC 2205) following pre-incubation in mouse serum; type: functional
[28] = molecular target: T1, Dipeptidase 1 (Sus scrofa) (UniProt P22412); assay: Relative hydrolysis by hog Dehydropeptidase; type: functional
T1 sequence (whole entry): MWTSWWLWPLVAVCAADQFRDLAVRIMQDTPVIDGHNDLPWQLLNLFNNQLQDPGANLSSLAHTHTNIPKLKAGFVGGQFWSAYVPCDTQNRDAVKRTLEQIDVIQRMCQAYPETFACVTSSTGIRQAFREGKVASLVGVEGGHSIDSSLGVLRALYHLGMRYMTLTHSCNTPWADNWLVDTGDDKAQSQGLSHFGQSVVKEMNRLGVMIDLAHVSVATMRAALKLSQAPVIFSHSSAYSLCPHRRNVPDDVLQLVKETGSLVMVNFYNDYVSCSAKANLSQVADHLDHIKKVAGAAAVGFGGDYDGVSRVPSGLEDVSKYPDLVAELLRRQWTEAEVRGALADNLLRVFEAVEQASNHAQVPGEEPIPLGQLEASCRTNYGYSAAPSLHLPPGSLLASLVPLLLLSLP

Escherichia coli [29] = assay: In vitro antibacterial activity expressed as MIC against E. coli(GC 1792) following pre-incubation in mouse serum; type: functional
Pseudomonas aeruginosa [30] = assay: In vitro antibacterial activity against P. aeruginosa(GC 1544 oprd) without pre-incubation in mouse serum; type: functional
Pseudomonas aeruginosa [31] = assay: In vitro antibacterial activity against Pseudomonas aeruginosa (ATCC 27853) following pre-incubation in mouse serum; type: functional
Morganella morganii [32] = assay: In vitro antibacterial activity against M. morganii(GC 2213) without preincubation in mouse serum
[33] = test system: Stenotrophomonas maltophilia; assay: In vitro antibacterial activity against X. maltophilia(GC 562) without pre-incubation in mouse serum
Enterococcus faecalis [34] = assay: In vitro antibacterial activity against E. faecalis(GC 842) without pre-incubation in mouse serum

SMILES | MIC [1] | MIC (Enterococcus faecium [2]) | MIC (Pseudomonas aeruginosa [3]) | ED50 (Mus musculus [4]) | MIC (Staphylococcus aureus [5]) | MIC (Staphylococcus aureus [6]) | MIC [7] | MIC (Staphylococcus aureus [8]) | MIC [9] | MIC (Enterobacter cloacae [10]) | MIC [11] | MIC (Escherichia coli [12]) | MIC (Escherichia coli [13]) | MIC (Citrobacter freundii [14]) | ED50 (Mus musculus [17]) | MIC (Staphylococcus aureus [18]) | MIC (Escherichia coli [21]) | MIC (Escherichia coli [22]) | Relative hydrolysis [28] | MIC (Pseudomonas aeruginosa [30]) | also measured
CCOC(=O)OCOC(=O)C1=C(S[C@@H]2CCO[C@@H]2CNC(=O)OCOC(=O)C(C)C)[C@H](C)C2[C@@H]([C@@H](C)O)C(=O)N12 (some centres undefined) | > 128 µg/mL | > 128 µg/mL | > 128 µg/mL | 0.4 mg/kg | 0.06 µg/mL (≈ 0.102 µM) | 4 µg/mL (≈ 6.8 µM) | 4 µg/mL (≈ 6.8 µM) | 128 µg/mL (≈ 217 µM) | > 128 µg/mL | > 128 µg/mL | > 128 µg/mL | 32 µg/mL (≈ 54.4 µM) | < 0.06 µg/mL | > 128 µg/mL | 0.56 mg/kg | 4 µg/mL (≈ 6.8 µM) | 16 µg/mL (≈ 27.2 µM) | 20 µg/mL (≈ 34 µM) | 11 | > 128 µg/mL | MIC (Morganella morganii [15]): 128 µg/mL (≈ 217 µM); MIC (Enterococcus faecalis [16]): 64 µg/mL (≈ 109 µM); MIC (Enterococcus faecium [19]): 128 µg/mL (≈ 217 µM); MIC (Morganella morganii [20]): 1 µg/mL (≈ 1.7 µM); MIC (Enterobacter cloacae [23]): 0.12 µg/mL (≈ 0.204 µM); MIC (Citrobacter freundii [24]): 0.25 µg/mL (≈ 0.425 µM); MIC (Pseudomonas aeruginosa [25]): 32 µg/mL (≈ 54.4 µM); MIC (Enterococcus faecalis [26]): 2 µg/mL (≈ 3.4 µM); MIC (Escherichia coli [27]): 0.06 µg/mL (≈ 0.102 µM); MIC (Escherichia coli [29]): 0.06 µg/mL (≈ 0.102 µM); MIC (Pseudomonas aeruginosa [31]): 16 µg/mL (≈ 27.2 µM)
C[C@@H](O)[C@H]1C(=O)N2C(C(=O)O)=C(S[C@@H]3CCO[C@@H]3CN)[C@H](C)[C@H]12 | 2 µg/mL (≈ 5.84 µM) | 64 µg/mL (≈ 187 µM) | 8 µg/mL (≈ 23.4 µM) | 0.34 mg/kg |  |  |  | 1 µg/mL (≈ 2.92 µM) |  | < 0.06 µg/mL |  | < 0.06 µg/mL |  | < 0.06 µg/mL | 3.8 mg/kg | < 0.06 µg/mL | < 0.06 µg/mL | < 0.06 µg/mL | 8.5 | 16 µg/mL (≈ 46.7 µM) | MIC (Morganella morganii [32]): 0.5 µg/mL (≈ 1.46 µM); MIC [33]: > 128 µg/mL; MIC (Enterococcus faecalis [34]): 0.5 µg/mL (≈ 1.46 µM)
CCOC(=O)OCOC(=O)C1=C(S[C@@H]2CCO[C@@H]2CN)[C@H](C)C2[C@@H]([C@@H](C)O)C(=O)N12.Cl (some centres undefined) | 64 µg/mL | 128 µg/mL | 128 µg/mL | 0.62 mg/kg | 0.03 µg/mL | 2 µg/mL | 2 µg/mL | 64 µg/mL | > 128 µg/mL | 2 µg/mL | > 128 µg/mL | 0.5 µg/mL | < 0.06 µg/mL | 4 µg/mL | 8.2 mg/kg | 1 µg/mL | 0.5 µg/mL | 1 µg/mL | 11 | > 128 µg/mL | MIC (Morganella morganii [15]): 16 µg/mL; MIC (Enterococcus faecalis [16]): 16 µg/mL; MIC (Enterococcus faecium [19]): 128 µg/mL; MIC (Morganella morganii [20]): 0.5 µg/mL; MIC (Enterobacter cloacae [23]): 0.12 µg/mL; MIC (Citrobacter freundii [24]): 0.25 µg/mL; MIC (Pseudomonas aeruginosa [25]): 32 µg/mL; MIC (Enterococcus faecalis [26]): 2 µg/mL; MIC (Escherichia coli [27]): < 0.06 µg/mL; MIC (Escherichia coli [29]): < 0.06 µg/mL; MIC (Pseudomonas aeruginosa [31]): 8 µg/mL
